The values below come from ChEMBL document CHEMBL5649166, “RIP3 induces apoptosis independent of pronecrotic kinase activity” (Mol Cell, 2014).

Assay [1] has as its target Casein kinase I isoform alpha (Homo sapiens) (UniProt P48729). Kind of assay: Inhibition of human CK1a1 using KRRRAL[pS]VASLPGL as substrate at 1 uM in presence of 32P-ATP by Hotspot assay relative to control; values are per cent of control.
Another assay concerns BMDM. Kind of assay: Inhibition of TNF-alpha induced necroptosis in mouse BMDM cells assessed as increase in cell viability at 0.04 to 1 uM incubated for 18 hrs in presence of zVAD and BV6 by Cell Titer-Glo luminescent cell viability assay. In kind it is functional, cell-based. To be noted: dose 0.04-1 µM.
In assay [2] the target is Vascular endothelial growth factor receptor 3 (Homo sapiens) (UniProt P35916). Briefly: Inhibition of human FLT4/VEGFR3 using poly[Glu:Tyr] (4:1) as substrate at 1 uM in presence of 32P-ATP by Hotspot assay relative to control; values are per cent of control.
Assay [3] has as its target Hepatocyte growth factor receptor (Homo sapiens) (UniProt P08581). Briefly: Inhibition of human c-MET using poly[Glu:Tyr] (4:1) as substrate at 1 uM in presence of 32P-ATP by Hotspot assay relative to control; values are per cent of control.
The target of assay [4] is Dual specificity mitogen-activated protein kinase kinase 2 (Homo sapiens) (UniProt P36507). Briefly: Inhibition of human MEK2 using ERK2 (K52R) as substrate at 1 uM in presence of 32P-ATP by Hotspot assay relative to control; values are per cent of control.
In assay [5] the target is T1, Mitogen-activated protein kinase kinase kinase kinase 2 (Homo sapiens) (UniProt Q12851).
T1 sequence (whole entry): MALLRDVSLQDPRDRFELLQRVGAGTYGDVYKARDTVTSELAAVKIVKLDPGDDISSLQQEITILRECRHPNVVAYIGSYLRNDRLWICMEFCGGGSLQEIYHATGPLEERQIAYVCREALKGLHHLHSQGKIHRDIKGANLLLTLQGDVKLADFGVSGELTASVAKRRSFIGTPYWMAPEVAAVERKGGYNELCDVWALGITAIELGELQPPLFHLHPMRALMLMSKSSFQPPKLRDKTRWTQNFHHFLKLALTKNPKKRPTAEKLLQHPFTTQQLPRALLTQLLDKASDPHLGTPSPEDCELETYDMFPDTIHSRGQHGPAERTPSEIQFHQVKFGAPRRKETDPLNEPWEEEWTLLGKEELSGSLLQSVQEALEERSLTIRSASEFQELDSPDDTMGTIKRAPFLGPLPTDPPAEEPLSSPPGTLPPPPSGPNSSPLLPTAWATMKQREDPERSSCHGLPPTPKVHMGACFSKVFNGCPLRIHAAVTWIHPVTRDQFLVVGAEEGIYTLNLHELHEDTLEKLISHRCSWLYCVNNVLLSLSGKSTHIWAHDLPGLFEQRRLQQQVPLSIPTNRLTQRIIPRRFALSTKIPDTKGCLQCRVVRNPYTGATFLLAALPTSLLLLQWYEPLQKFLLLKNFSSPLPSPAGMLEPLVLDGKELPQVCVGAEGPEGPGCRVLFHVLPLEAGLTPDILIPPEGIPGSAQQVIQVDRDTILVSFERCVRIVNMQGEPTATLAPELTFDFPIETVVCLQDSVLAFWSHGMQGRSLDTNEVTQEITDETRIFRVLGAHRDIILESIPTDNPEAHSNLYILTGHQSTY
Briefly: Inhibition of human GCK/MAP4K2 using myelin basic protein as substrate at 1 uM in presence of 32P-ATP by Hotspot assay relative to control; values are per cent of control.

Assay [6] addresses CDK9/cyclin T1 (Homo sapiens) (UniProt O60563+P50750). Briefly: Inhibition of human CDK9/cyclin T1 using KTFCGTPEYLAPEVRREPRILSEEEQEMFRDFDYIADWC as substrate at 1 uM in presence of 32P-ATP by Hotspot assay relative to control; values are per cent of control.
For assay [7], the target named is Interleukin-1 receptor-associated kinase 1 (Homo sapiens) (UniProt P51617). Briefly: Inhibition of human IRAK1 using myelin basic protein as substrate at 1 uM in presence of 32P-ATP by Hotspot assay relative to control; values are per cent of control.
Assay [8] deals with T2, Tyrosine-protein kinase Mer (Homo sapiens) (UniProt Q12866).
T2 sequence (whole entry): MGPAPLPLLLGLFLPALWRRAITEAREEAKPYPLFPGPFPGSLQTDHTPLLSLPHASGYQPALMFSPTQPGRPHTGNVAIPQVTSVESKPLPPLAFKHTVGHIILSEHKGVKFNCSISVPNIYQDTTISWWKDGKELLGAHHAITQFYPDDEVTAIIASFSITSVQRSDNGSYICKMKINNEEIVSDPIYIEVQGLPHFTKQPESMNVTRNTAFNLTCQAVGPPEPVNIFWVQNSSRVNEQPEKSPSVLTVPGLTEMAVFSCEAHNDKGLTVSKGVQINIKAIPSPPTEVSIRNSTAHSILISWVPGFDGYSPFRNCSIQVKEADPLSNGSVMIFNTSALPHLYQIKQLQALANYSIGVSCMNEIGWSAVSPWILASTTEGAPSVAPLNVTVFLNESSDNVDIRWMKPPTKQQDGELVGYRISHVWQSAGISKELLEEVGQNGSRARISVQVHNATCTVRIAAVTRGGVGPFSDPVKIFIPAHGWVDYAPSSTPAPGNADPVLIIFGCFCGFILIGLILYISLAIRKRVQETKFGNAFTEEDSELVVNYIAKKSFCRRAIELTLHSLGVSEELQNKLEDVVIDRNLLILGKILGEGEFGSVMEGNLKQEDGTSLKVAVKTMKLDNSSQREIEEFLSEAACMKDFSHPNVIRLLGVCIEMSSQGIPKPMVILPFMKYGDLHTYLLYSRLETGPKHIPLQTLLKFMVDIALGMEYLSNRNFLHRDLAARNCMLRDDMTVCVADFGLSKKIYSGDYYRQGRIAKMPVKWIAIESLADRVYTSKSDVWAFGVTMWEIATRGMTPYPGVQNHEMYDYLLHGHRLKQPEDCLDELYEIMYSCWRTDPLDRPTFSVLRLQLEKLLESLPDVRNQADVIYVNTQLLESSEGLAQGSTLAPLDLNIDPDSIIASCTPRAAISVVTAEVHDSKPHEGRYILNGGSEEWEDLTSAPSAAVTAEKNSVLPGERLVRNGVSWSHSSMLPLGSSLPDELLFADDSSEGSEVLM
Briefly: Inhibition of human c-MER using poly[Glu:Tyr] (4:1) as substrate at 1 uM in presence of 32P-ATP by Hotspot assay relative to control; values are per cent of control.

In assay [9] the target is Serine/threonine-protein kinase pim-3 (Homo sapiens) (UniProt Q86V86). Briefly: Inhibition of human PIM3 using RSRHSSYPAGT as substrate at 1 uM in presence of 32P-ATP by Hotspot assay relative to control; values are per cent of control.

Active and inactive are the calls of the source. No cut-off for these calls is given here.

Sequence of Interleukin-1 receptor-associated kinase 1 (Homo sapiens) (P51617 whole entry, looked up): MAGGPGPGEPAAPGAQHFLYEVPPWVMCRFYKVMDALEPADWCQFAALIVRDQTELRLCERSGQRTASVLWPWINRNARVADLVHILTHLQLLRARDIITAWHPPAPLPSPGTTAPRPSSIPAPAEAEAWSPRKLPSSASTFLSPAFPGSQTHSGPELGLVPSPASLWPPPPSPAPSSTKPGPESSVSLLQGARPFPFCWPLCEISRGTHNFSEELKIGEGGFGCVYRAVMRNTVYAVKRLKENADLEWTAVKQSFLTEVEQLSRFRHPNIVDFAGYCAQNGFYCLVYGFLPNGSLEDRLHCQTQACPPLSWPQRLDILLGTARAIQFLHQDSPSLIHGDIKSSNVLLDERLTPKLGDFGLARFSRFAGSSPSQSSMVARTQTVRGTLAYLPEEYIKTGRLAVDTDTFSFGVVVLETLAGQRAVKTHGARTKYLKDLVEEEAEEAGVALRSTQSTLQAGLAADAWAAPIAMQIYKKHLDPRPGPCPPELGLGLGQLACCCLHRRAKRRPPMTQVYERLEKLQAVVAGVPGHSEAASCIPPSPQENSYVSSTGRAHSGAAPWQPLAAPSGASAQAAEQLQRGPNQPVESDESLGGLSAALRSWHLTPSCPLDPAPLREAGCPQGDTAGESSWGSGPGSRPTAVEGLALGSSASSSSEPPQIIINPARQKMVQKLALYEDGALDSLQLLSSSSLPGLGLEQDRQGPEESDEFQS
Sequence of Casein kinase I isoform alpha (Homo sapiens) (P48729 2-337 limits assumed): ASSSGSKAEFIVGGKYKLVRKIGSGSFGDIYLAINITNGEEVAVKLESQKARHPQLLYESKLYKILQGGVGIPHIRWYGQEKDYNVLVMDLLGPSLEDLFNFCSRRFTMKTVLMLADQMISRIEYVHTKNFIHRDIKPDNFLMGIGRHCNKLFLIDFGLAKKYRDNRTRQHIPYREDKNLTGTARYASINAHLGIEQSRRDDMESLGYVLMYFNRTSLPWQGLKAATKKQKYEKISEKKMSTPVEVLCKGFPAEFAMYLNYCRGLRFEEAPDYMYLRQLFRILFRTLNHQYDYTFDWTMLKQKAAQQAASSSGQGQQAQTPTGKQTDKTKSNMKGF
Sequence of Dual specificity mitogen-activated protein kinase kinase 2 (Homo sapiens) (P36507 whole entry): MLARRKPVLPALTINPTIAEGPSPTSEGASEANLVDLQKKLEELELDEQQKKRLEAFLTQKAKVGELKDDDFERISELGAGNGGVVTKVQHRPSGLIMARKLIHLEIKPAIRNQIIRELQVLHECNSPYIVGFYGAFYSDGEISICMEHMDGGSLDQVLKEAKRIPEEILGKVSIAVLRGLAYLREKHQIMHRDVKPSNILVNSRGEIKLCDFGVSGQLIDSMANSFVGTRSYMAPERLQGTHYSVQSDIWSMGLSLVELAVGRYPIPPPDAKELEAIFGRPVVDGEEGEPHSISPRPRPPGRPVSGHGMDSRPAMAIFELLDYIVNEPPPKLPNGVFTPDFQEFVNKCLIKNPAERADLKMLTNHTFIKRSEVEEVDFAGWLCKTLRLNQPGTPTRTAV
Sequence of Vascular endothelial growth factor receptor 3 (Homo sapiens) (P35916 whole entry): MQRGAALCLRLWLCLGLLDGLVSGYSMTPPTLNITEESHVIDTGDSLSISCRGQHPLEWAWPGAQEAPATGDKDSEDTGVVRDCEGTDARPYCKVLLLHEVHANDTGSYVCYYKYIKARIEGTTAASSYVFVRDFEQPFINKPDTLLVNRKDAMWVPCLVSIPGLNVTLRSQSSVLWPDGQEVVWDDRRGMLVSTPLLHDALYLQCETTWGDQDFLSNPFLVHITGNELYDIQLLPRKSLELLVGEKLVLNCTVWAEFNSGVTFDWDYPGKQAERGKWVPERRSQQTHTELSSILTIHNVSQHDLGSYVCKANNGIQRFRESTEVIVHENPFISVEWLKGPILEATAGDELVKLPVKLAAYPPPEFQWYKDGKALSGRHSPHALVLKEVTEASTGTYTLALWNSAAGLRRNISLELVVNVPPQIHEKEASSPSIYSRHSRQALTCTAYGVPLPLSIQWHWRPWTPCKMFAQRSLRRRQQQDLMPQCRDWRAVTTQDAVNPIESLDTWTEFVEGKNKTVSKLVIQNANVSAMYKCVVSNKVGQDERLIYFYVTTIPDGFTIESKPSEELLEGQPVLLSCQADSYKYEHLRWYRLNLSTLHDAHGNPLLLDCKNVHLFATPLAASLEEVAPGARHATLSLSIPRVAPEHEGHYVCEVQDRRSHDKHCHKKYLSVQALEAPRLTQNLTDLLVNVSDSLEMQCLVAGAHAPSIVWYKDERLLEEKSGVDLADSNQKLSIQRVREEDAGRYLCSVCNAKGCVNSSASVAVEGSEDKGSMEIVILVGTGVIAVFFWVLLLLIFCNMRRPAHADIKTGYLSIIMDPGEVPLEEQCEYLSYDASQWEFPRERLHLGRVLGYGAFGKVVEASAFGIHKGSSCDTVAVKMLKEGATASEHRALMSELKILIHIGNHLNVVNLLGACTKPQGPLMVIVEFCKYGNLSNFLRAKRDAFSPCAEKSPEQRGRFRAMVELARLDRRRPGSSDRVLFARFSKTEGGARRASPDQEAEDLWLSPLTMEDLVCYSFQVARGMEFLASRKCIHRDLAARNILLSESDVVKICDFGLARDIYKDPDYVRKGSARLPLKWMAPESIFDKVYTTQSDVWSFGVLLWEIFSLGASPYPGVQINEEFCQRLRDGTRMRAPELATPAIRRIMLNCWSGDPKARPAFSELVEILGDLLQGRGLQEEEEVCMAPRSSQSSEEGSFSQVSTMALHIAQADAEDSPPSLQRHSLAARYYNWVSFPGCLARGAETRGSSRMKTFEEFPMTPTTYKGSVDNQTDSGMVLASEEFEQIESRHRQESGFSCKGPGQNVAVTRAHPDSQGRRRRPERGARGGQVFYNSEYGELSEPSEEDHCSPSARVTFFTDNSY
Sequence of Hepatocyte growth factor receptor (Homo sapiens) (P08581 whole entry): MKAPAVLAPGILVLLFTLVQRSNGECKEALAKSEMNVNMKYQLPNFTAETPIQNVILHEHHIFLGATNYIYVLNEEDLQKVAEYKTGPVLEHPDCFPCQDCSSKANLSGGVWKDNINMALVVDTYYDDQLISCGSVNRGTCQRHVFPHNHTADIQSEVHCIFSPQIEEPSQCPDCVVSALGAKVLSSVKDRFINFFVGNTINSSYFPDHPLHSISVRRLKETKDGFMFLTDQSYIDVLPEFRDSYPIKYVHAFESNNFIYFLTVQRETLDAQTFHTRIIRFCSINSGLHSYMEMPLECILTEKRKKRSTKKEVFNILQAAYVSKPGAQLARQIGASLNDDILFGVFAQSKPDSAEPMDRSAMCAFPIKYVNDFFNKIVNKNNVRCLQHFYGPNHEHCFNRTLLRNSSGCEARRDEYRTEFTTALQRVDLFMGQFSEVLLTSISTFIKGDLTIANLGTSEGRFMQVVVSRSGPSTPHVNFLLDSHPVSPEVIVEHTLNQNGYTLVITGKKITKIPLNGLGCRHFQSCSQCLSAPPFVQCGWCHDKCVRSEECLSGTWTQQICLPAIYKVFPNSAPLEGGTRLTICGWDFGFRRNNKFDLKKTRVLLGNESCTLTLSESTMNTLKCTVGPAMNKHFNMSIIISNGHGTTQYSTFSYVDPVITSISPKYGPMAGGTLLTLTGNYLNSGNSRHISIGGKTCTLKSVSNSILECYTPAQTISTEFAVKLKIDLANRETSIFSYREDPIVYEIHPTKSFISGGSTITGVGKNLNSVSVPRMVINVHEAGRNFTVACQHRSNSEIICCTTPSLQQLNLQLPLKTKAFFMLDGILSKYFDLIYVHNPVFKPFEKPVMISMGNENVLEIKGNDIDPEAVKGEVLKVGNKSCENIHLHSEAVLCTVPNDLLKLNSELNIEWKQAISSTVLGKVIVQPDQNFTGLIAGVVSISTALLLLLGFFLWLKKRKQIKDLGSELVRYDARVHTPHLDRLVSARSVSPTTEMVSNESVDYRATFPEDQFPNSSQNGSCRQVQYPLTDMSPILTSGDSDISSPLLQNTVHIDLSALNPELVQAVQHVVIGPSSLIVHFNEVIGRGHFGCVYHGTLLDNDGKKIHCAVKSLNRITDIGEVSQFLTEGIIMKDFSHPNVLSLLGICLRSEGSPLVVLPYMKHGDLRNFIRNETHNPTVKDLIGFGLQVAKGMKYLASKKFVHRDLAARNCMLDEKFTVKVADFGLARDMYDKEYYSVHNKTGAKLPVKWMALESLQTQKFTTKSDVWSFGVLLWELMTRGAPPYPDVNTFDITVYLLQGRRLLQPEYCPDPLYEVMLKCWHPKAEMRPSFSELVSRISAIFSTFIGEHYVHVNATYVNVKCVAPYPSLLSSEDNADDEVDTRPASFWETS

Consider `Cc1cc(-c2cnc(N)c3c(-c4ccc5scnc5c4)csc23)n(C)n1`, for which the residual activity in assay [1] was determined as 88.4%; in assay [2] it was 103%; in [3] it was 76.8%; in [4], 97.8%; in [5], 68.1%; in assay [6] it was 96.2%. Besides, the residual activity was found to be 90% in assay [7], 89.1% in assay [8] and 99.5% in assay [9]. Also, the inhibition entry in the assay with BMDM is “Active”.
For `CC(C)S(=O)(=O)c1ccc2nccc(Nc3ccc4scnc4c3)c2c1`, the residual activity in assay [1] was found to be 105%; in assay [2] it was 83.1%; in assay [3], 86.2%; in assay [4], 105%; in assay [5], 88.3%; in assay [6], 96.6%. The residual activity in assay [7] came out at 102%; in assay [8] it was 93.8%; in assay [9], 94.2%. Besides, in the assay with BMDM, the inhibition entry is “Active”.
With `CNC(=O)c1ccc2c(c1)ncn2-c1ccc(CC(=O)OC(C)(C)C)cc1`, the residual activity in [1] came to 98.5%; in assay [2] it was 78.8%; in assay [3], 92.4%; in assay [4], 98.3%; in assay [5], 91.8%; in assay [6], 91.3%. Besides, the results for the residual activity in assay [7], in [8] and in assay [9] were 78.6%, 102% and 99.9%, respectively. In the assay on BMDM, the inhibition result was “inactive”.
